# Reference: paper PMC4038554, “Human CD4^+ T Cell Responses to the Dog Major Allergen Can f 1 and Its Human Homologue Tear Lipocalin Resemble Each Other” (PLoS ONE, 2014)
# Columns and labels:
# Test in all cases: HLA class II peptide-binding assay (competitive ELISA)
# DRB1*0401 = DRB1*0401 (Homo sapiens, UniProt P01903+P01911, A100K/A169T/F76Y/I96L/K127E/L162R/M171V/N62H/P40V/Q125Y/R42H/S133A/S149N/S66Y/V115G/V209L/W38E); conditions: immunopurified HLA, reference peptide IC50 8 nM, ratio ≤20 high affinity, 20–200 moderate affinity
# DRB1*1301 = DRB1*1301 (Homo sapiens, UniProt P01903+P01911, A100E/A169T/K41T/L162R/M171V/P40S/Q125H/Q178H/Q39Y/Q99D/R42S/S66N/T262R/W38E/Y61H); conditions: immunopurified HLA, reference peptide IC50 208 nM, ratio ≤20 high affinity, 20–200 moderate affinity
# DRB1*0701 = DRB1*0701 (Homo sapiens, UniProt P01903+P01911, A100R/A102G/A103Q/D57E/D86V/E43K/F76Y/K127E/L162R/M171V/P40G/Q125H/Q99D/R33Q/R42Y/R54Q/S133A/S66F/T210M/V115G/Y107V/Y59L/Y89S); conditions: immunopurified HLA, reference peptide IC50 5 nM, ratio ≤20 high affinity, 20–200 moderate affinity
# DRB1*1501 = DRB1*1501 (Homo sapiens, UniProt P01903+P01911); conditions: immunopurified HLA, reference peptide IC50 775 nM, ratio ≤20 high affinity, 20–200 moderate affinity
# DRB5 = test system: DRB5; set-up: species or system human; conditions: DRB5; competitive ELISA, immunopurified HLA; reference peptide IC50 7 nM; ratio ≤20 high affinity, 20–200 moderate affinity
# DRB4 = test system: DRB4; set-up: species or system human; conditions: DRB4; competitive ELISA, immunopurified HLA; reference peptide IC50 8 nM; ratio ≤20 high affinity, 20–200 moderate affinity
# DRB1*1101 = DRB1*1101 (Homo sapiens, UniProt P01903+P01911, A100R/A169T/A87E/I96F/K41T/L162R/M171V/P40S/Q125H/Q178H/Q39Y/Q99D/R42S/S66Y/T262R/V115G/W38E); conditions: immunopurified HLA, reference peptide IC50 50 nM, ratio ≤20 high affinity, 20–200 moderate affinity
# DRB1*0101 = DRB1*0101 (Homo sapiens, UniProt P01903+P01911, A100R/D57E/F55L/F60I/F76Y/I96L/L162R/M171V/P40L/Q125E/R42F/V115G/Y59C); conditions: immunopurified HLA, reference peptide IC50 3 nM, ratio ≤20 high affinity, 20–200 moderate affinity
# DRB1*0301 = DRB1*0301 (Homo sapiens, UniProt P01903+P01911, A100K/A102G/A103R/A169T/F55Y/I96L/K41T/L162R/M171V/P40S/Q125H/Q178H/Q39Y/R42S/S66N/T106N/T262R/W38E/Y61H); conditions: immunopurified HLA, reference peptide IC50 423 nM, ratio ≤20 high affinity, 20–200 moderate affinity
# DRB3 = test system: DRB3; set-up: species or system human; conditions: DRB3; competitive ELISA, immunopurified HLA; reference peptide IC50 60 nM; ratio ≤20 high affinity, 20–200 moderate affinity
relative binding ratio (IC50 of the test peptide divided by IC50 of the reference peptide) (DRB1*0401),relative binding ratio (IC50 of the test peptide divided by IC50 of the reference peptide) (DRB1*1301),relative binding ratio (IC50 of the test peptide divided by IC50 of the reference peptide) (DRB1*0701),relative binding ratio (IC50 of the test peptide divided by IC50 of the reference peptide) (DRB1*1501),relative binding ratio (IC50 of the test peptide divided by IC50 of the reference peptide) (DRB5),relative binding ratio (IC50 of the test peptide divided by IC50 of the reference peptide) (DRB4),relative binding ratio (IC50 of the test peptide divided by IC50 of the reference peptide) (DRB1*1101),relative binding ratio (IC50 of the test peptide divided by IC50 of the reference peptide) (DRB1*0101),relative binding ratio (IC50 of the test peptide divided by IC50 of the reference peptide) (DRB1*0301),relative binding ratio (IC50 of the test peptide divided by IC50 of the reference peptide) (DRB3),Sequence
91,40,644,7,50,62,78,48,14,> 167,"HYILYCEGELHGRQIR [pC6, Can f 1 peptide p95–110]"
1,26,75,8,72,29,70,32,1,> 167,"GKWYLKAMTADQEVPE [pC1, Can f 1 peptide p15–30]"
3,> 481,2 222,5,16,121,3,31,> 236,> 167,"HYIFYCEGELHGKPVR [pTL6, Tear lipocalin peptide p96–111]"
50,471,103,2,339,> 1 179,89,4,33,> 167,"LEAKITMLTNGQCQNIT [pC3, Can f 1 peptide p48–64]"
120,5,447,> 13,1,> 1 179,0.3,209,7,> 167,"GKHVAYIIRSHVKDHY [pTL5, Tear lipocalin peptide p82–97]"
72,26,> 1 874,> 13,144,> 1 179,11,141,1,1,"KPDSVTPMILKAQKGGNL [pC2, Can f 1 peptide p31–48]"
31,> 481,65,> 13,433,> 1 179,0.2,17,> 236,2,"PGKYTADGGKHVAYII [pTL4, Tear lipocalin peptide p74–89]"
1,24,47,6,2,1,67,82,10,84,"GTWYLKAMTVDREFPE [pTL1, Tear lipocalin peptide p15–30]"
> 1 260,236,> 1 874,> 13,> 1 443,> 1 179,105,> 3844,8,> 167,"KPVRGVKLVGRDPKNNL [pTL7, Tear lipocalin peptide p108–124]"
101,33,61,7,3,1 054,179,1,28,> 167,"GQRVVFIQPSPVRDHY [pC5, Can f 1 peptide p81–96]"
661,2,> 1 874,> 13,1,94,92,66,4,> 167,"RQIRMAKLLGRDPEQSQ [pC7, Can f 1 peptide p107–123]"
